Ten compounds from patent publication US20120220594A1, “METHODS FOR TREATING CANCER IN PATIENTS HAVING IGF-1R INHIBITOR RESISTANCE” (Bristol-Meyers Squibb Company, priority 2009, published 2012) can be followed below.

The test system of one test is Rh41-807R cells. Briefly: 3H-thymidine incorporation cell proliferation assay in BMS-754807-resistant Rh41-807R cells. The settings on record: for IC50: Homo sapiens. Type of test: cell-based, human. An excerpt:
(§1) Human rhabdomyosarcoma cell line Rh41 was provided by Dr. Lee Helman and grown in RPMI medium plus GLUTAMAX® supplemented with 10% fetal bovine serum (FBS), 10 mmol/L HEPES, penicillin, and streptomycin.
On the technique in general: Dividing cells build labelled thymidine or BrdU into new DNA.

For another test, the system named is Rh41 cells. Briefly: 3H-thymidine incorporation cell proliferation assay in parental Rh41 cells. Type of test: cell-based, human. The settings on record: Homo sapiens.
Text: as §1

Test [1] has as its target type I-IGF receptor (IGF-1R), as expressed by human rhabdomyosarcoma Rh41 cells and the derived resistant lines (human) (UniProt P08069). Briefly: cell-based or functional assay.
The mark [2] stands for this setting: Rh41-807R cells, PDGFR inhibitors, Table 7, read-out: Rh41-807R IC50.
[3] abbreviates: Rh41 cells, PDGFR inhibitors, Table 7, read-out: Rh41 IC50.
[4] abbreviates: Rh41-807R cells, cytotoxic agents and mTOR inhibitor, Table 2, read-out: Rh41-807R IC50.
Where [5] appears, read: cytotoxic agents and mTOR inhibitor.
Where [6] appears, read: Rh41 cells, cytotoxic agents and mTOR inhibitor, Table 2, read-out: Rh41 IC50.

Like-named read-outs stand apart in the source and are kept apart here.

type I-IGF receptor (IGF-1R), as expressed by human rhabdomyosarcoma Rh41 cells and the derived resistant lines (human), sequence (P08069 31-1367, change not shown): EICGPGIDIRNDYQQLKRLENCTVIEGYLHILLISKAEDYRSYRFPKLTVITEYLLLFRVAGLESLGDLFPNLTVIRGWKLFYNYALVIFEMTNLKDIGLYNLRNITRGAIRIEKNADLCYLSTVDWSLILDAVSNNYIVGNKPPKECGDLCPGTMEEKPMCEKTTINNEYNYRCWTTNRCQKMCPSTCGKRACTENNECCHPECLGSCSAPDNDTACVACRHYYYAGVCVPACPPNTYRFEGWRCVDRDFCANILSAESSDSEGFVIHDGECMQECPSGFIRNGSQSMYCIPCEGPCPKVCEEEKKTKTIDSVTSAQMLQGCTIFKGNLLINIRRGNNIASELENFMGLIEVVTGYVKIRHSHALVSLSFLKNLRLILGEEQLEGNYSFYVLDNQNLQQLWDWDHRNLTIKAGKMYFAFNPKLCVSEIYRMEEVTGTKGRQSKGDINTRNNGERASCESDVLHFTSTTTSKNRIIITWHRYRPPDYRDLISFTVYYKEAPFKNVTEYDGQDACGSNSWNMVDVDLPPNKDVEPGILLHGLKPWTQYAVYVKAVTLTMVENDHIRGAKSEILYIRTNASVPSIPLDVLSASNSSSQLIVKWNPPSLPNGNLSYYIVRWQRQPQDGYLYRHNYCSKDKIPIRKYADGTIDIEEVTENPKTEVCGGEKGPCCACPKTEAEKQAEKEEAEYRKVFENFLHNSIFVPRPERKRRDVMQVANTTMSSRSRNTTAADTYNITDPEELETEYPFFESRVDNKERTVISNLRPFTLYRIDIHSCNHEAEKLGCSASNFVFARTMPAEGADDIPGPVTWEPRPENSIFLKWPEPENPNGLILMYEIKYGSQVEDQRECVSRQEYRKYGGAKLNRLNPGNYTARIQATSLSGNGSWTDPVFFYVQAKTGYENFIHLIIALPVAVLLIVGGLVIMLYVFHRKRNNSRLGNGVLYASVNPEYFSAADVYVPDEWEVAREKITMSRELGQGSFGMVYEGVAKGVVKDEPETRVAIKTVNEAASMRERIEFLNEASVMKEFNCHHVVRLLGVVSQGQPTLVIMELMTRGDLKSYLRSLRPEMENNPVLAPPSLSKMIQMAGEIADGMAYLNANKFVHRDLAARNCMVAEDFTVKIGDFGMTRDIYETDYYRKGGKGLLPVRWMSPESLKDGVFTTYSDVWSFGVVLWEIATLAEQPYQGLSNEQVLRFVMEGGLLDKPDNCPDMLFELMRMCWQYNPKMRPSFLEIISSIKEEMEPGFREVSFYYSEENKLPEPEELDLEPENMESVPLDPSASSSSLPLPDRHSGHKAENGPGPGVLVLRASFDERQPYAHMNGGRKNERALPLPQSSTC

`CN1CCN(c2ccc3nc(-c4c(N)c5c(F)cccc5[nH]c4=O)[nH]c3c2)CC1` [Dovitinib]: the IC50 with Rh41-807R cells (setting [2]) is 722 ± 264 nM; in the test on Rh41 cells (setting [3]), 6456 ± 60 nM.

Regarding `Nc1ccn([C@@H]2O[C@H](CO)[C@@H](O)C2(F)F)c(=O)n1` [Gemcitabine], the IC50 in the test on Rh41-807R cells (setting [4]) was determined as 3 nM; with Rh41 cells (setting [6]) it was 1.1 ± 0.4 nM. In the test on Rh41-807R cells (setting [5]), the “sensitivity of Rh41-807R compared with the parental line” value is “very similar level of sensitivity as the parental line”.

Turning to `C/C(=C\c1csc(C)n1)[C@@H]1C[C@@H]2O[C@]2(C)CCC[C@H](C)[C@H](O)[C@@H](C)C(=O)C(C)(C)[C@@H](O)CC(=O)N1` [Ixabepilone], the IC50 in the test on Rh41-807R cells (setting [4]) came out at 3.4 ± 0.4 nM; in the test with Rh41 cells (setting [6]), 4 nM.

As to `CO[C@H]1C[C@@H]2CC[C@@H](C)[C@@](O)(O2)C(=O)C(=O)N2CCCC[C@H]2C(=O)O[C@H]([C@H](C)C[C@@H]2CC[C@@H](O)[C@H](OC)C2)CC(=O)[C@H](C)/C=C(\C)[C@@H](O)[C@@H](OC)C(=O)[C@H](C)C[C@H](C)/C=C/C=C/C=C/1C` [Rapamycin], the 50% inhibitory concentration (IC50) with Rh41-807R cells (setting [4]) and with Rh41 cells (setting [6]) was below 0.32 nM each time.

In the case of `CNC(=O)c1cc(Oc2ccc(NC(=O)Nc3ccc(Cl)c(C(F)(F)F)c3)cc2)ccn1` [Sorafenib], the IC50 in the test with Rh41-807R cells (setting [2]) was 804 ± 210 nM; in the test with Rh41 cells (setting [3]) it was above 2000 nM.

Turning to `CCN(CC)CCNC(=O)c1c(C)[nH]c(/C=C2\C(=O)Nc3ccc(F)cc32)c1C` [Sunitinib], the values for the IC50 in the test with Rh41-807R cells (setting [2]) and with Rh41 cells (setting [3]) were 1020 ± 321 nM and 1400 ± 634 nM, respectively.

For `CC(=O)O[C@H]1C(=O)[C@@]2(C)[C@H]([C@H](OC(=O)c3ccccc3)[C@]3(O)C[C@H](OC(=O)[C@H](O)[C@@H](NC(=O)c4ccccc4)c4ccccc4)C(C)=C1C3(C)C)[C@]1(OC(C)=O)CO[C@@H]1C[C@@H]2O` [TAXOL ®, paclitaxel], the IC50 is 1.8 ± 0.3 nM in the test with Rh41-807R cells (setting [4]) and 2.1 ± 0.4 nM in the test on Rh41 cells (setting [6]). Moreover, the “sensitivity of Rh41-807R compared with the parental line” value in the test on Rh41-807R cells (setting [5]) is reported as “very similar level of sensitivity as the parental line”.

As for `CC(=O)O[C@@]12CO[C@@H]1C[C@H](O)[C@@]1(C)C(=O)[C@H](O)C3=C(C)[C@@H](OC(=O)[C@H](O)[C@@H](NC(=O)OC(C)(C)C)c4ccccc4)C[C@@](O)([C@@H](OC(=O)c4ccccc4)[C@H]21)C3(C)C` [Taxotere], the IC50 with Rh41-807R cells (setting [4]) and with Rh41 cells (setting [6]) was 0.5 nM throughout.

`CC[C@]12C=CCN3CC[C@@]4(c5cc([C@@]6(C(=O)OC)C[C@@H]7C[C@@H](C(C)(F)F)CN(Cc8c6[nH]c6ccccc86)C7)c(OC)cc5N(C)[C@H]4[C@@](O)(C(=O)OC)[C@@H]1OC(C)=O)[C@@H]32` [Vinflunine]: the IC50 with Rh41-807R cells (read-out: Rh41-807R IC50 (nM)) was found to be 21 ± 3 nM; in the test on Rh41 cells (Rh41, read-out: Rh41 IC50 (nM)), 28 ± 2.8 nM.

With “MAB391 (R&D Systems), IGF-1R neutralizing antibody”, in test [1], the IC50 (nM), growth inhibition of Rh41-807R cells, 3H-thymidine incorporation, 72 h was above 2000 nM; the IC50 (nM), growth inhibition of Rh41-MAB391R cells, 3H-thymidine incorporation, 72 h is above 2000 nM; the IC50 (nM), growth inhibition of Rh41 parental cells, 3H-thymidine incorporation, 72 h stood at 0.1 nM.

As usually defined, the IC50 is the concentration at which inhibition is half-maximal.
